Assay results reported in patent US4183940A, “Antimycotic imidazolyl-9,10-dihydro-anthracene derivatives” (Bayer Aktiengesellschaft, priority 1976, dated 1980).
In brackets after ≈: the same amount, converted by molar mass.

Assays:
[1] = system: Trichophyton mentagrophytes; assay: Antimycotic in vitro activity (series dilution test), Trichophyton mentagrophytes; format: cell-based; details: Sabouraud's milieu d'epreuve, 28° C., 24 to 96 hours; for MIC: Trichophyton mentagrophytes, read-out: MIC values in γ/ml of nutrient medium for Trichophyton mentagrophytes
Method: (§1) The invitro tests were carried out in a series dilution test with germ inocula of an average of 5×10^4 germs/ml of substrate. The nutrient medium was (a) for dermatophytes and moulds: Sabouraud's milieu d 'epreuve and (b) for yeasts: meat extract/glucose broth. The incubation temperature was 28° C. and the duration of incubation was 24 to 96 hours.

Candida albicans = assay: Antimycotic in vitro activity (series dilution test), Candida albicans; format: cell-based; details: meat extract/glucose broth, 28° C., 24 to 96 hours; for MIC: Candida albicans, read-out: MIC values in γ/ml of nutrient medium for Candida albicans
Method: as §1

Penicillium commune = assay: Antimycotic in vitro activity (series dilution test), Penicillium commune; format: cell-based; details: Sabouraud's milieu d'epreuve, 28° C., 24 to 96 hours; for MIC: Penicillium commune, read-out: MIC values in γ/ml of nutrient medium for Penicillium commune
Method: as §1

Aspergillus species = assay: Antimycotic in vitro activity (series dilution test), Aspergillus species; format: cell-based; details: Sabouraud's milieu d'epreuve, 28° C., 24 to 96 hours; for MIC: Aspergillus, read-out: MIC values in γ/ml of nutrient medium for Aspergillus species
Method: as §1

Microsporon felineum = assay: Antimycotic in vitro activity (series dilution test), Microsporon felineum; format: cell-based; details: Sabouraud's milieu d'epreuve, 28° C., 24 to 96 hours; for MIC: read-out: MIC values in γ/ml of nutrient medium for Microsporon felineum
Method: as §1

Candida = assay: Antimycotic in vivo activity (oral) in candidosis of mice; set-up: key: +++++: very good action=≥90% of survivors on the 6th day after infection; ++++: good action=≥80% of survivors on the 6th day after infection; +++: action=≥60% of survivors on the 6th day after infection; ++: poor action=≥40% of survivors on the 6th day after infection; +: trace of action; n.a.: no action; details: mice SPF-CF1, i.v. infection with Candida, 100 mg/kg oral one hour before and seven hours after infection
Method: Mice of the type SPF-CF1 were infected intravenously with 1-2×10^6 logarithmically growing Candida cells, which were suspended in physiological sodium chloride solution. The animals were treated orally one hour before and seven hours after the infection with, in each case, 100 mg/kg of body weight of the formulations.
Untreated animals died from the infection 2 to 6 days after infection. The survival rate on the 6th day after infection was about 5% in the case of the untreated control animals.

MIC [1] | MIC (Candida albicans) | MIC (Penicillium commune) | MIC (Aspergillus species) | MIC (Microsporon felineum) | SMILES | MIC values in γ/ml of nutrient medium for Trichophyton mentagrophytes [1] | MIC values in γ/ml of nutrient medium for Candida albicans (Candida albicans) | MIC values in γ/ml of nutrient medium for Penicillium commune (Penicillium commune) | MIC values in γ/ml of nutrient medium for Aspergillus species (Aspergillus species) | MIC values in γ/ml of nutrient medium for Microsporon felineum (Microsporon felineum) | Action (survivors on the 6th day after infection) (Candida)
– | – | – | – | – | O=C1c2ccccc2C(c2ccccc2)(n2ccnc2)c2ccccc21 [drawing 21] | < 1 µg/mL | > 64 µg/mL | 8 µg/mL | 32 µg/mL | 4 µg/mL | –
< 4 µg/mL | 100 µg/mL (≈ 282 µM) | > 100 µg/mL | > 100 µg/mL | 20 µg/mL (≈ 56.4 µM) | CSc1ccc(C2(n3ccnc3)c3ccccc3-c3ccccc32)cc1 [reference compound] | – | – | – | – | – | –
– | – | – | – | – | Cc1ccc(C2(n3ccnc3)c3ccccc3C(=O)c3ccccc32)cc1 [drawing 25] | < 1 µg/mL | > 64 µg/mL | 8 µg/mL | > 64 µg/mL | 4 µg/mL | –
– | – | – | – | – | Cc1ccccc1C1(n2ccnc2)c2ccccc2C(=O)c2ccccc21 [drawing 23] | < 1 µg/mL | 32 µg/mL | 4 µg/mL | > 64 µg/mL | 1 µg/mL | –
> 100 µg/mL | 20 µg/mL (≈ 61.7 µM) | 100 µg/mL (≈ 308 µM) | – | > 100 µg/mL | c1ccc(C2(n3ccnc3)c3ccccc3Oc3ccccc32)cc1 [reference compound] | – | – | – | – | – | –
– | – | – | – | – | O=C1c2ccccc2C(c2ccccc2)(n2ccnc2)c2ccccc21 [drawing 19] | < 1 µg/mL | 8 µg/mL | 8 µg/mL | 32 µg/mL | < 1 µg/mL | –
– | – | – | – | – | c1ccc(C2(n3ccnc3)c3ccccc3C(c3ccccc3)(n3ccnc3)c3ccccc32)cc1 (stereo not drawn) [drawing 32] | – | – | – | – | – | ++ (poor action=≥40% of survivors on the 6th day after infection)
10 µg/mL (≈ 26.1 µM) | – | > 100 µg/mL | > 100 µg/mL | 40 µg/mL (≈ 105 µM) | CSc1ccc(C2(n3ccnc3)c3ccccc3CCc3ccccc32)cc1 [reference compound] | – | – | – | – | – | –
– | – | – | – | – | O=C1c2ccccc2C(c2ccccc2)(n2ccnc2)c2ccccc21 [drawing 20] | < 1 µg/mL | > 64 µg/mL | 8 µg/mL | 64 µg/mL | 4 µg/mL | –
> 100 µg/mL | 40 µg/mL (≈ 117 µM) | > 100 µg/mL | – | > 100 µg/mL | c1ccc(C2(n3ccnc3)c3ccccc3Sc3ccccc32)cc1 [reference compound] | – | – | – | – | – | –
– | – | – | – | – | Cc1ccccc1C1(n2ccnc2)c2ccccc2C(=O)c2ccccc21 [drawing 35] | – | – | – | – | – | +
– | – | – | – | – | O=C1c2ccccc2C(c2ccccc2)(n2ccnc2)c2ccccc21 [drawing 31] | – | – | – | – | – | +++ (action=≥60% of survivors on the 6th day after infection)
< 1 µg/mL | 64 µg/mL (≈ 183 µM) | – | > 64 µg/mL | 8 µg/mL (≈ 22.8 µM) | Cc1ccc(C2(n3ccnc3)c3ccccc3C(=O)c3ccccc32)cc1 [drawing 24] | – | – | 64 µg/mL | – | – | –

SMILES | MIC [1] | MIC (Candida albicans) | MIC (Penicillium commune) | MIC (Aspergillus species) | MIC (Microsporon felineum) | MIC values in γ/ml of nutrient medium for Trichophyton mentagrophytes [1] | MIC values in γ/ml of nutrient medium for Candida albicans (Candida albicans) | MIC values in γ/ml of nutrient medium for Penicillium commune (Penicillium commune) | MIC values in γ/ml of nutrient medium for Aspergillus species (Aspergillus species) | MIC values in γ/ml of nutrient medium for Microsporon felineum (Microsporon felineum) | Action (survivors on the 6th day after infection) (Candida)
c1ccc(C2(n3ccnc3)c3ccccc3C(c3ccccc3)(n3ccnc3)c3ccccc32)cc1 (stereo not drawn) [drawing 26] | 32 µg/mL (≈ 68.9 µM) | 4 µg/mL (≈ 8.61 µM) | > 64 µg/mL | – | – | – | – | – | – | – | –
O=C1c2ccccc2C(c2ccccc2)(n2ccnc2)c2ccccc21 [drawing 18] | < 1 µg/mL | – | 4 µg/mL (≈ 11.9 µM) | – | – | – | 4 µg/mL | – | 4 µg/mL | 8 µg/mL | –
Cc1ccccc1C1(n2ccnc2)c2ccccc2C(=O)c2ccccc21 [drawing 22] | < 1 µg/mL | > 64 µg/mL | – | > 64 µg/mL | < 1 µg/mL | – | – | > 64 µg/mL | – | – | –
